# Assays:
# [1] = tested on: MIA PaCa-2 human pancreatic carcinoma; assay: MIA PaCa-2 CCK-8 proliferation assay; assay type: cell-based; conditions: Homo sapiens, MIA PaCa-2, 72 h, MIA PaCa-2 cells
# Procedure: The following cancer cell lines were employed: BT-474 human breast carcinoma (ATCC, #HTB-20); MIA PaCa-2 human pancreatic carcinoma [2 copies KRAS(G12C)](ATCC, #CRL-1420); NCI-H23 human non-small cell lung cancer [1 copy KRAS(G12C)](ATCC, #CRL-5800); NCI-H358 human non-small cell lung cancer [1 copy KRAS(G12C)](ATCC, #CRL-5807); LU65A human lung carcinoma (Pharmaron, Beijing, China). Cell lines were cultured essentially according to ATCC and Pharmaron recommendations.
# Cancer Cell Line Proliferation (CCK-8) Assays
# 3-fold serial dilutions of each test compound were prepared ranging from 20 μM to 1.02 nM.
# % Inhibition=100−(D−B)/(S−B)*100%. • S: Absorbance of cells treated with DMSO • D: Absorbance of compound-treated cells • B: Absorbance of medium with DMSO without cells
# KRAS(G12C) = KRAS(G12C) (Homo sapiens, UniProt P01116, G12C); assay: KRAS(G12C)/SOS1 homogeneous time-resolved fluorescence (HTRF) assay; design: purchased Cisbio 63ADK000CB16PEG; conditions: absence of GTP, 4° C. for 3 hr, read-out: KRAS (G12C) binding
# Procedure: KRAS(G12C)/SOS1 Homogeneous Time-Resolved Fluorescence (HTRF) Assay
# Binding of test compounds to KRAS(G12C) protein, which in turn blocks KRAS(G12C) interaction with the SOS1 protein, was measured in the absences of GTP by homogeneous time-resolved fluorescence (HTRF) using the KRAS-G12C/SOS1 Binding Assay Kit (Cisbio, #63ADK000CB16PEG), following the manufacturer's instructions, except as noted. 3-fold serial dilutions of each test compound were prepared ranging from […] to 1.02 nM. The test compound was mixed and incubated with reaction components, incubated in a sealed plate at 4° C. for 3 hr and fluorescence was measured using a PerkinElmer Envision plate reader.
# HSP90a protein = biological target: T1, HSP90a protein (Homo sapiens, UniProt P07900); assay: HSP90α-binding fluorescent polarization (FP) assay, BODIPY-labeled RNK04010 probe; conditions: FP competition with RNK04010 (BODIPY-labeled), 5 nM, 300 min at 25° C.
# T1 construct: purchased BPS Bioscience 50298
# Procedure: HSP90α-Binding Fluorescent Polarization (FP) Assay
# Binding of test compounds to HSP90a protein was measured by fluorescent polarization (FP) using the HSP90a (N-terminal) Assay Kit (BPS Bioscience, #50298), following the manufacturer's instructions, except as noted. Fluorescently labeled HSP90-binding compounds, either the provided FITC-geldanamycin (5 nM final concentration) or RNK04010, a triazolone-based HSP90 binding small molecule labeled with BODIPY through a piperizine-phenyl linker (5 nM final concentration) were employed. A 2.5-fold serial dilution of each test compound ranging from 20 μM to 5.2 nM was assayed for binding to HSP90a. After the final step of adding HSP90a protein to each assay well, plates were mixed by brief shaking, incubated at 25° C. for 120 min for FITC-geldanamycin or 300 min for RNK04010, and fluorescence was measured using a PerkinElmer EnVision Plate Reader.
# Chain of KRAS(G12C) (P01116 1-188 isoform P01116-2 G12C): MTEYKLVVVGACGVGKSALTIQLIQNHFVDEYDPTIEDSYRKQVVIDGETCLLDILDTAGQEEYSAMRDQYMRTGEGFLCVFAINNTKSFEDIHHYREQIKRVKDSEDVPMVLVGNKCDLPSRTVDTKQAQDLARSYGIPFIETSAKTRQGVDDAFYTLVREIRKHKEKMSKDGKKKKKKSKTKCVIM
SMILES,EC50 [1] [nM],IC50 (KRAS(G12C)) [nM],IC50 (HSP90a protein) [nM]
"C=CC(=O)N1CCN(c2nc(OCCN3CCC(C(=O)N4CCC(CN5CCC(Cc6ccc(-n7c(O)nnc7-c7cc(O)c(C(C)C)cc7O)cc6)CC5)CC4)CC3)nc3c2CCN(c2cccc4cccc(Cl)c24)C3)C[C@@H]1CC#N [Compound 238, (S)-2-(1-acryloyl-4-(7-(8-chloronaphthalen-1-yl)-2-(2-(4-(4-((4-(4-(3-(2,5-dihydroxy-4-isopropylphenyl)-5-hydroxy-4H-1,2,4-triazol-4-yl)benzyl)piperidin-1-yl)methyl)piperidine-1-carbonyl)piperidin-1-yl)ethoxy)-5,6,7,8-tetrahydropyrido[3,4-d]pyrimidin-4-yl)piperazin-2-yl)acetonitrile]",> 1000,100 to 1000,–
"C=CC(=O)N1CCN(c2nc(OC[C@@H]3CCN(CCCOCCC(=O)NCc4ccc(-n5c(O)nnc5-c5cc(C(C)C)c(O)cc5O)cc4)C3)nc3c2CCN(c2cccc4cccc(Cl)c24)C3)C[C@@H]1CC#N [Compound 182, 3-(3-((R)-3-(((4-((S)-4-acryloyl-3-(cyanomethyl)piperazin-1-yl)-7-(8-chloronaphthalen-1-yl)-5,6,7,8-tetrahydropyrido[3,4-d]pyrimidin-2-yl)oxy)methyl)pyrrolidin-1-yl)propoxy)-N-(4-(3-(2,4-dihydroxy-5-isopropylphenyl)-5-hydroxy-4H-1,2,4-triazol-4-yl)benzyl)propanamide]",> 1000,–,< 100
"C=CC(=O)N1CCN(c2nc(OCCN3CCN(C4CCN(Cc5ccc(-n6c(O)nnc6-c6cc(C)c(O)cc6O)cc5)CC4)CC3)nc3c2CCN(c2cccc4cccc(Cl)c24)C3)C[C@@H]1CC#N [Compound 267, (S)-2-(1-acryloyl-4-(7-(8-chloronaphthalen-1-yl)-2-(2-(4-(1-(4-(3-(2,4-dihydroxy-5-methylphenyl)-5-hydroxy-4H-1,2,4-triazol-4-yl)benzyl)piperidin-4-yl)piperazin-1-yl)ethoxy)-5,6,7,8-tetrahydropyrido[3,4-d]pyrimidin-4-yl)piperazin-2-yl)acetonitrile]",> 1000,< 100,–
"C=CC(=O)N1CCN(c2nc(OC[C@@H]3CCN(C(=O)C4CCN(Cc5ccc(-n6c(O)nnc6-c6cc(C)c(O)cc6O)cc5)CC4)C3)nc3c2CCN(c2cccc4cccc(Cl)c24)C3)C[C@@H]1CC#N [Compound 180, 2-((S)-1-acryloyl-4-(7-(8-chloronaphthalen-1-yl)-2-(((R)-1-(1-(4-(3-(2,4-dihydroxy-5-methylphenyl)-5-hydroxy-4H-1,2,4-triazol-4-yl)benzyl)piperidine-4-carbonyl)pyrrolidin-3-yl)methoxy)-5,6,7,8-tetrahydropyrido[3,4-d]pyrimidin-4-yl)piperazin-2-yl)acetonitrile]",> 1000,–,100 to 1000
"C=CC(=O)N1CCN(c2nc(OC[C@@H]3CCN(C(=O)COc4ccc(Nc5cc(-n6nc(C(F)(F)F)c7c6CC(C)(C)CC7=O)ccc5C(N)=O)cc4)C3)nc3c2CCN(c2cccc4cccc(Cl)c24)C3)C[C@@H]1CC#N [Compound 178, 2-((4-(2-((R)-3-(((4-((S)-4-acryloyl-3-(cyanomethyl)piperazin-1-yl)-7-(8-chloronaphthalen-1-yl)-5,6,7,8-tetrahydropyrido[3,4-d]pyrimidin-2-yl)oxy)methyl)pyrrolidin-1-yl)-2-oxoethoxy)phenyl)amino)-4-(6,6-dimethyl-4-oxo-3-(trifluoromethyl)-4,5,6,7-tetrahydro-1H-indazol-1-yl)benzamide]",> 1000,–,> 1000

# Other lines, results leading:
EC50 [1] [nM],IC50 (KRAS(G12C)) [nM],IC50 (HSP90a protein) [nM],SMILES
–,< 100,< 100,"C=CC(=O)N1CCN(c2nc(OC[C@@H]3CC[C@H](C(=O)N4CCN(C(=O)C5CCN(Cc6ccc(-n7c(O)nnc7-c7cc(C(C)C)c(O)cc7O)cc6)CC5)CC4)N3C)nc3c2CCN(c2cccc4cccc(Cl)c24)C3)C[C@@H]1CC#N [Compound 341, 2-[(2S)-4-[7-(8-chloronaphthalen-1-yl)-2-{[(2S,5R)-5-{4-[1-({4-[3-(2,4-dihydroxy-5-isopropylphenyl)-5-hydroxy-1,2,4-triazol-4-yl]phenyl}methyl)piperidine-4-carbonyl]piperazine-1-carbonyl}-1-methylpyrrolidin-2-yl]methoxy}-5H,6H,8H-pyri-do[3,4-d]pyrimidin-4-yl]-1-(prop-2-enoyl)piperazin-2-yl]acetonitrile]"
100 to 1000,< 100,–,"C=CC(=O)N1CCN(c2nc(OCCN3CCC(N4CCN(C(=O)C5CCN(Cc6ccc(-n7c(C(N)=O)nnc7-c7cc(C(C)C)c(O)cc7O)cc6)CC5)CC4)CC3)nc3c2CCN(c2cccc4cccc(Cl)c24)C3)C[C@@H]1CC#N [Compound 249, (S)-4-(4-((4-(4-(1-(2-((4-(4-acryloyl-3-(cyanomethyl)piperazin-1-yl)-7-(8-chloronaphthalen-1-yl)-5,6,7,8-tetrahydropyrido[3,4-d]pyrimidin-2-yl)oxy)ethyl)piperidin-4-yl)piperazine-1-carbonyl)piperidin-1-yl)methyl)phenyl)-5-(2,4-dihydroxy-5-isopropylphenyl)-4H-1,2,4-triazole-3-carboxamide]"
100 to 1000,< 100,–,"C=CC(=O)N1CCN(c2nc(OCCN3CCC(C(=O)N4CCN(Cc5ccc(-n6c(C(=O)NCCN7CCN(S(C)(=O)=O)CC7)nnc6-c6cc(C(C)C)c(O)cc6O)cc5)CC4)CC3)nc3c2CCN(c2cccc4cccc(Cl)c24)C3)C[C@@H]1CC#N [Compound 242, (S)-4-(4-((4-(1-(2-((4-(4-acryloyl-3-(cyanomethyl)piperazin-1-yl)-7-(8-chloronaphthalen-1-yl)-5,6,7,8-tetrahydropyrido[3,4-d]pyrimidin-2-yl)oxy)ethyl)piperidine-4-carbonyl)piperazin-1-yl)methyl)phenyl)-5-(2,4-dihydroxy-5-isopropylphenyl)-N-(2-(4-(methylsulfonyl)piperazin-1-yl)ethyl)-4H-1,2,4-triazole-3-carboxamide]"
100 to 1000,–,< 100,"C=CC(=O)N1CCN(c2nc(OCC3CCN(C(=O)C4CCN(Cc5ccc(-n6c(O)nnc6-c6cc(C(C)C)c(O)cc6O)cc5)CC4)CC3)nc3c2CCN(c2cccc4cccc(Cl)c24)C3)C[C@@H]1CC#N [Compound 179, (S)-2-(1-acryloyl-4-(7-(8-chloronaphthalen-1-yl)-2-((1-(1-(4-(3-(2,4-dihydroxy-5-isopropylphenyl)-5-hydroxy-4H-1,2,4-triazol-4-yl)benzyl)piperidine-4-carbonyl)piperidin-4-yl)methoxy)-5,6,7,8-tetrahydropyrido[3,4-d]pyrimidin-4-yl)piperazin-2-yl)acetonitrile]"
100 to 1000,< 100,–,"C=CC(=O)N1CCN(c2nc(OCCN3CCC(C(=O)N4CCN(Cc5ccc(-n6c(C(=O)NC)nnc6-c6cc(C(C)C)c(O)cc6O)cc5)CC4)CC3)nc3c2CCN(c2cccc4cccc(Cl)c24)C3)C[C@@H]1CC#N [Compound 239, (S)-4-(4-((4-(1-(2-((4-(4-acryloyl-3-(cyanomethyl)piperazin-1-yl)-7-(8-chloronaphthalen-1-yl)-5,6,7,8-tetrahydropyrido[3,4-d]pyrimidin-2-yl)oxy)ethyl)piperidine-4-carbonyl)piperazin-1-yl)methyl)phenyl)-5-(2,4-dihydroxy-5-isopropylphenyl)-N-methyl-4H-1,2,4-triazole-3-carboxamide]"
100 to 1000,100 to 1000,–,"C=CC(=O)N1CCN(c2nc(OC[C@@H]3CCN3C(=O)C3CCN(Cc4ccc(-n5c(C(N)=O)nnc5-c5cc(C(C)C)c(O)cc5O)cc4)CC3)nc3c2CCN(c2cccc4cccc(Cl)c24)C3)C[C@@H]1CC#N [Compound 190, 4-(4-((4-((S)-2-(((4-((S)-4-acryloyl-3-(cyanomethyl)piperazin-1-yl)-7-(8-chloronaphthalen-1-yl)-5,6,7,8-tetrahydropyrido[3,4-d]pyrimidin-2-yl)oxy)methyl)azetidine-1-carbonyl)piperidin-1-yl)methyl)phenyl)-5-(2,4-dihydroxy-5-isopropylphenyl)-4H-1,2,4-triazole-3-carboxamide]"
